Read-outs that look alike come from different tables or passages of the source.

The record followed here is patent US20240254089A1, “MODULATORS OF MAS-RELATED G-PROTEIN RECEPTOR X4 AND RELATED PRODUCTS AND METHODS” (ESCIENT PHARMACEUTICALS, INC., priority 2020, published 2024).

The target in the test is T1, human MRGPR X4 (Homo sapiens, UniProt Q96LA9).
T1 construct: expressed in transfected cells
The experiment in a line: MRGPR X4 antagonist activity, IP-One Gq HTRF assay in stably transfected HEK cells. It is filed as cell-based. Put shortly: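 IC50 comes from HTRF IP-1 accumulation in stably transfected HEK cells expressing human MRGPR X4. Compounds (10 uM top, 1:3 serial, 10 points) were co-incubated with 10 μM bilirubin, 20 μM deoxycholic acid or 100 μM conjugated bilirubin in LiCl-containing buffer, pH 8, for 1 h at 37 °C plus 30 min at room temperature.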
In general terms: In TR-FRET formats the signal depends on donor and acceptor labels being close together.

[1] abbreviates: versus 20 μM deoxycholic acid agonist, HEK cells expressing human MRGPR X4, read-out: MRGPRX4 Antagonist Activity.

T1 sequence (Q96LA9 whole entry): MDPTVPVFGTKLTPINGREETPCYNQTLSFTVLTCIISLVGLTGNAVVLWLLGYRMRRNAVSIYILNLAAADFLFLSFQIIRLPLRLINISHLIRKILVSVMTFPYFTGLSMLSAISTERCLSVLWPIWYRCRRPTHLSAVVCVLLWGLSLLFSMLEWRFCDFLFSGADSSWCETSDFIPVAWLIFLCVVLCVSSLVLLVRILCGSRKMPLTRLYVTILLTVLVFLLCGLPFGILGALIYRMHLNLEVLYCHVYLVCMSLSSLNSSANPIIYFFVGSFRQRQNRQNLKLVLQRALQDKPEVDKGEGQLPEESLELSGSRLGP

In turn, `COc1ncccc1CCNC(=O)c1cn(Cc2cccc(F)c2)c2ccccc12` [Compound 203] returned an IC50 of 1000 to 2500 nM.
On the same count and under the same terms, in the case of `O=C(NCCc1ccccc1C(F)(F)F)c1cn(Cc2ccc(Cl)cc2)c2ccccc12` [Compound 190] it was 501 to 1000 nM; in that of `O=C(NCCc1cccnc1)c1nn(Cc2cccc(F)c2)c2ccccc12` [Compound 96], 1000 to 2500 nM.
As for `Cc1cccc(S(=O)(=O)NC(=O)c2nn(Cc3ccc(C(F)(F)F)cc3Cl)c3ccccc23)c1` [Compound 306], under setting [1], the IC50 was above 2500 nM.
In turn, `O=C(NCCn1cc(C2CC2)nn1)c1nn(Cc2ccc(Cl)cc2)c2ccccc12` [Compound 138] had an IC50 below 100 nM.
With `Cc1cc(Cl)ccc1Cn1nc(C(=O)NCCc2nnc3n2CCCCC3)c2ccccc21` [Compound 11], the IC50 was below 100 nM.
With `Cc1ccc(Cn2nc(C(=O)NCCc3c[nH]nn3)c3ccccc32)cc1` [Compound 73], the IC50 lay within 501 to 1000 nM.
Same read-out and setting: in the case of `CC(C)n1cnnc1CCNC(=O)c1nn(Cc2ccc(Cl)cc2)c2ccccc12` [Compound 99] it was 1000 to 2500 nM.
Turning to `O=C(CS(=O)(=O)c1cn(Cc2ccc(Cl)cc2)c2ccccc12)Nc1ccc(Cl)cc1` [Compound 256], the IC50 under setting [1] is above 2500 nM.
`O=C(NCCc1nnc2ccccn12)c1nn(Cc2ccc3c(c2)OCO3)c2ccccc12` [Compound 508]: the IC50 is 100 to 500 nM.
Still for that read-out and setting: in the case of `Cc1ccc(Cn2nc(C(=O)NCCc3cccnc3)c3c(F)cccc32)cc1` [Compound 70] it was 501 to 1000 nM.
For the compound `O=C(CS(=O)(=O)c1cn(Cc2ccc(Cl)cc2)c2ccccc12)Nc1ccccc1Cl` [Compound 244], under setting [1], the IC50 fell in the range of 501 to 1000 nM.
Turning to `CC1(c2cn(CCNC(=O)c3nn(Cc4ccc(Cl)cc4)c4ccccc34)nn2)COC1` [Compound 139], the IC50 lay within 100 to 500 nM.
Still for that read-out and setting: in the case of `O=C(NCc1ncc(-c2ccccc2)[nH]1)c1nn(Cc2ccc(Cl)cc2)c2ccccc12` [Compound 429] it was 501 to 1000 nM.
The same measure, in the same setting: for `Cc1ccc(Cn2nc(C(=O)NCCc3cccnc3)c3cc(Cl)ccc32)cc1` [Compound 27] the value was below 100 nM; for `O=C(NCCc1nnc2ccccn12)c1nn(Cc2ccc(Cl)c(F)c2)c2ccccc12` [Compound 524], below 100 nM.
With `Cc1cccc(S(=O)(=O)NC(=O)c2nn(Cc3ccc(OC(F)F)cc3)c3ccccc23)c1Cl` [Compound 283], the IC50 under setting [1] lay in the range of 1000 to 2500 nM.
With `Cc1ccc(Cn2cc(C(=O)NCCc3nc4c(s3)CCC4)c3ccccc32)cc1` [Compound 174], the IC50 lay in the range of 100 to 500 nM.
`N#Cc1ccccc1Cn1nc(C(=O)NCCc2nnc3ccccn23)c2ccccc21` [Compound 409] yielded an IC50 of 1000 to 2500 nM.
Still for that read-out and setting: for `O=C(NCCc1c[nH]c2ccc(Cl)cc12)c1nn(Cc2ccc(Cl)cc2)c2ccccc12` [Compound 396] the value was above 2500 nM.
`Cc1cc(S(=O)(=O)NC(=O)c2nn(Cc3ccc(C(F)(F)F)cc3Cl)c3ccccc23)ccc1C#N` [Compound 263]: the IC50 under setting [1] lay within 501 to 1000 nM.
`CC(C)c1ccc(Cn2nc(C(=O)NCCc3nc4c(s3)CCCC4)c3ccccc32)cc1` [Compound 108]: the IC50 was 1000 to 2500 nM.
Still for that read-out and setting: in the case of `O=C(NCc1cccc2nc[nH]c12)c1nn(Cc2ccc(Cl)cc2)c2ccccc12` [Compound 475] it was above 2500 nM.
Still for that read-out and setting: for `O=C(NCCc1nnc2ccccn12)c1nn(Cc2cccc3ccsc23)c2ccccc12` [Compound 548] the value was 501 to 1000 nM; for `N#Cc1ccc(Cn2cc(C(=O)NCCc3ccc(Cl)c(F)c3)c3ccccc32)cc1` [Compound 188], 501 to 1000 nM; for `O=C(NCCc1nnc2ccccn12)c1nn(Cc2ccc3c(c2)OC(F)(F)O3)c2ccccc12` [Compound 507], 100 to 500 nM.
The same measure, in the same setting: in the case of `O=C(NCCOc1cccnc1)c1nn(Cc2ccc(Cl)cc2)c2ccccc12` [Compound 336] it was 100 to 500 nM; in that of `O=C(NCCc1nnc2ccccn12)c1nn(Cc2ccc3ccccc3c2)c2ccc(F)cc12` [Compound 532, N-(2-([1,2,4]triazolo[4,3-a]pyridin-3-yl)ethyl)-5-fluoro-1-(naphthalen-2-ylmethyl)-1H-indazole-3-carboxamide], below 100 nM.
With `O=C(NCc1cnc2ccccc2c1)c1nn(Cc2ccc(Cl)cc2)c2ccccc12` [Compound 370], the IC50 is above 2500 nM.
Still for that read-out and setting: for `Cc1ccc(Cn2nc(C(=O)NCCc3nnc4n3CCCCC4)c3c(F)cccc32)cc1` [Compound 30] the value was 100 to 500 nM.
The same measure, in the same setting: in the case of `O=C(NCCc1ccncc1)c1nn(Cc2ccc(Cl)cc2)c2ccccc12` [Compound 31] it was 100 to 500 nM.
The same measure, in the same setting: in the case of `O=C(NCCc1nnc2n1CCCCC2)c1nn(Cc2ccc(-c3ccccc3)cc2)c2ccccc12` [Compound 106] it was 1000 to 2500 nM; in that of `O=C(NS(=O)(=O)c1ccc(F)cc1)c1nn(Cc2ccc(OC(F)F)cc2)c2ccccc12` [Compound 266], 501 to 1000 nM.
With `Cc1ccc(NC(=O)CS(=O)(=O)c2cn(Cc3ccc(Cl)cc3)c3ccccc23)cc1` [Compound 247], under setting [1], the IC50 was 1000 to 2500 nM.
The same measure, in the same setting: in the case of `O=C(CS(=O)(=O)c1cn(Cc2ccc(Cl)cc2)c2ccccc12)Nc1ccccc1` [Compound 242] it was 501 to 1000 nM; in that of `Cc1c(Cl)cccc1S(=O)(=O)NC(=O)c1nn(Cc2cccc(F)c2)c2ccccc12` [Compound 307], above 2500 nM.
For `COc1ccc(CCNC(=O)c2cn(Cc3cccc(F)c3)c3ccccc23)cn1` [Compound 216], the IC50 was in the range of 1000 to 2500 nM.
`O=C(NCCc1cccc(C(F)(F)F)c1)c1cn(Cc2ccc(Cl)cc2)c2ccccc12` [Compound 206] had an IC50 of 1000 to 2500 nM.
On the same count and under the same terms, in the case of `Cc1cc(Cl)ccc1Cn1nc(C(=O)NCCc2nnc3ccccn23)c2ccccc21` [Compound 554] it was below 100 nM; in that of `Cn1cc2ccc(CNC(=O)c3nn(Cc4ccc(Cl)cc4)c4ccccc34)cc2n1` [Compound 391], 1000 to 2500 nM; in that of `COC1CN(CCn2cc(C(=O)NCCc3ccccn3)c3ccccc32)C1` [Compound 228], above 2500 nM.
Compound `Cc1cc(Cn2nc(C(=O)NCCc3nnc4ccccn34)c3ccccc32)ccc1Cl` [Compound 555] came in with an IC50 below 100 nM.
Still for that read-out and setting: in the case of `Cc1cccn2cc(CNC(=O)c3nn(Cc4ccc(Cl)cc4)c4ccccc34)nc12` [Compound 421] it was 501 to 1000 nM; in that of `O=C(NCCc1nnc2ccccn12)c1nn(Cc2ccc(Cl)cc2)c2c(Br)cccc12` [Compound 541], below 100 nM; in that of `O=C(CNC(=O)c1nn(Cc2ccc(Cl)cc2)c2ccccc12)c1ccc(F)cc1F` [Compound 380], above 2500 nM.
`O=C(NCCc1noc2ccccc12)c1nn(Cc2ccc(Cl)cc2)c2ccccc12` [Compound 45] gave an IC50 of 100 to 500 nM.
Same read-out and setting: in the case of `Cc1ccc(CCNC(=O)c2cn(Cc3ccc(Cl)cc3)c3ccccc23)c(C)n1` [Compound 156] it was 100 to 500 nM.
The same measure, in the same setting: for `Cc1ccc(Cn2nc(C(=O)NCCc3ccc[nH]3)c3ccccc32)cc1` [Compound 104] the value was 1000 to 2500 nM.
On the same count and under the same terms, for `O=C(NCCc1nnc2ccccn12)c1nn(Cc2nc3ccccc3[nH]2)c2ccccc12` [Compound 521] the value was 1000 to 2500 nM.
Turning to `Cc1cc(Cn2nc(C(=O)NCCc3cccnc3)c3ccccc32)ccc1Cl` [Compound 32], the IC50 lay within 100 to 500 nM.
On the same count and under the same terms, in the case of `O=C(NCc1cccc(F)c1F)c1nn(Cc2ccc(Cl)cc2)c2ccccc12` [Compound 360] it was above 2500 nM.
For the compound `Cc1ccc(Cn2nc(C(=O)NCCc3nc4c(s3)CCC4)c3ccccc32)cc1` [Compound 36], the IC50 was in the range of 100 to 500 nM.
On the same count and under the same terms, in the case of `COc1ccc(CCNC(=O)c2cn(Cc3ccc(Cl)cc3)c3ccccc23)cc1` [Compound 182] it was 100 to 500 nM.
As for `COc1ccc(S(=O)(=O)NC(=O)c2nn(Cc3ccc(OC(F)F)cc3)c3ccccc23)cc1` [Compound 289], under setting [1], the IC50 lay within 1000 to 2500 nM.
`Cc1ccc(Cn2nc(C(=O)NCCc3cccnc3)c3ccccc32)cc1` [Compound 52]: the IC50 was in the range of 100 to 500 nM.
As for `CS(=O)(=O)c1cccc(Cn2nc(C(=O)NCCc3nnc4ccccn34)c3ccccc32)c1` [Compound 510], the IC50 under setting [1] was above 2500 nM.
The compound `O=C(NCCc1cccnc1)c1cn(Cc2ccccc2Cl)c2ccccc12` [Compound 183] came in with an IC50 of 501 to 1000 nM.
Same read-out and setting: in the case of `O=C(NCCc1nnc2ccccn12)c1nn(Cc2cnc3ccccc3c2)c2ccccc12` [Compound 455] it was 100 to 500 nM; in that of `O=C(NCCc1nnc2ccccn12)c1nn(Cc2ccc(Cl)cc2)c2ccccc12` [Compound 10], below 100 nM.
On to `Cc1cc(Cl)ccc1Cn1nc(C(=O)O)c2ccccc21` [Compound 324], for which the IC50 under setting [1] was above 2500 nM.
As to `COc1cccc(CS(=O)(=O)NC(=O)c2nn(Cc3ccc(Cl)cc3)c3ccccc23)c1` [Compound 300], under setting [1], the IC50 is above 2500 nM.
`Cc1cccn2c(CCNC(=O)c3nn(Cc4ccc(Cl)cc4)c4ccc(F)cc34)nnc12` [Compound 1] came in with an IC50 below 100 nM.
Still for that read-out and setting: for `Cc1ccc2c(c1)nc(Cn1nc(C(=O)NCCc3nnc4ccccn34)c3ccccc31)n2C` [Compound 570] the value was above 2500 nM.
Still for that read-out and setting: in the case of `Cc1cccc(S(=O)(=O)NC(=O)c2nn(Cc3ccc(OC(F)F)cc3)c3ccccc23)c1` [Compound 270] it was 1000 to 2500 nM.
As to `O=C(Cn1nc(C(=O)NCCc2nnc3ccccn23)c2ccccc21)c1cc2ccccc2o1` [Compound 503], the IC50 under setting [1] was 501 to 1000 nM.
On the same count and under the same terms, in the case of `CC(C)NC(=O)CS(=O)(=O)c1cn(Cc2ccc(Cl)cc2)c2ccccc12` [Compound 248] it was 1000 to 2500 nM.
In turn, `Cn1cc2cccc(CNC(=O)c3nn(Cc4ccc(Cl)cc4)c4ccccc34)c2n1` [Compound 428] yielded an IC50 above 2500 nM.
The same measure, in the same setting: in the case of `O=C(NCCc1nc2c(s1)CCCC2)c1nn(Cc2cccc(F)c2)c2ccccc12` [Compound 81] it was 501 to 1000 nM; in that of `O=C(NCCc1cnccn1)c1cn(Cc2ccc(Cl)cc2)c2ccccc12` [Compound 171], 100 to 500 nM; in that of `O=C(NCCc1nnc2ccccn12)c1nn(CCOc2ccc(Cl)cc2)c2ccccc12` [Compound 485], 501 to 1000 nM.
On the same count and under the same terms, for `O=C(NCCCn1cnc2ccccc21)c1nn(Cc2ccc(Cl)cc2)c2ccccc12` [Compound 425] the value was 1000 to 2500 nM.
